The values that follow come from BindingDB's records for patent US20240043395 (Neuropore Therapies, 2024).

For this assay, the target named is Toll-like receptor 2 (Homo sapiens, UniProt O60603). The experiment in a line: LR2 Assays. As for the experimental part: Next, 50 μL of an approximate 3×EC50 concentration of each agonist (Pam2CSK4 or Pam3CSK4) was added to the wells containing test compounds or the vehicle control. The plates were then incubated at 37° C./5% CO2 for 18 h. For each assay run, non-treated HEK-Blue hTLR2 cells were treated with serial dilutions of agonists to determine EC50 values for the respective run. On day 2, secreted alkaline phosphatase (SEAP) activity was detected in cell culture supernatants. In brief, 20 μL was collected from each well and transferred to a 96-well plate. Next, 200 μL of Quanti-Blue detection reagent was added to each well. […] IC50 values were calculated based on 8-point dilutions for each compound.
Chain of Toll-like receptor 2 (O60603 whole entry): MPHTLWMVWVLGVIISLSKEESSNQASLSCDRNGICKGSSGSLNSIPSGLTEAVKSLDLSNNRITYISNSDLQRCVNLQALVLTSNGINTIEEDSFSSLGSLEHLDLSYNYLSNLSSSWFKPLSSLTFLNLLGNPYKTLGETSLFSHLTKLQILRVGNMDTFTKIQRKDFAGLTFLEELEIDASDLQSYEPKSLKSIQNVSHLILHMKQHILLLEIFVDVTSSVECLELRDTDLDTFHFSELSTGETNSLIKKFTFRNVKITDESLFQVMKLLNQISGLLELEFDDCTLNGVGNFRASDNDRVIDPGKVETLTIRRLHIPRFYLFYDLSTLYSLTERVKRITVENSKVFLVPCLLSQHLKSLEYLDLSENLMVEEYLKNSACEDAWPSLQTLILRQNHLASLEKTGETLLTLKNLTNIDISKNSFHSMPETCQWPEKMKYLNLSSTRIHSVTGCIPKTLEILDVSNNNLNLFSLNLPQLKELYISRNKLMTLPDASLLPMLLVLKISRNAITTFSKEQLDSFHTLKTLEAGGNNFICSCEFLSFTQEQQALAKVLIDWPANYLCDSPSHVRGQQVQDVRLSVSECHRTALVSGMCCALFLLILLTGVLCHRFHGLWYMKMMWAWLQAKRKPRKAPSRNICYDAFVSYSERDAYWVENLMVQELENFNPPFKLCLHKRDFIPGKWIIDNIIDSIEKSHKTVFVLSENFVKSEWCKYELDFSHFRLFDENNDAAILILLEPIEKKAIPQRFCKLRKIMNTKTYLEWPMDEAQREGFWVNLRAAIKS

On to `O=Cc1cc(NC(=O)c2csc(N3CCCCC3)n2)cc(F)c1O` [US20240043395, Compound 9], for which the IC50 (as a rule, the concentration needed to halve the response being measured) is 5.2 µM.
